62 compounds from a melting point compilation (Tetko et al.; mined from patent text by program, amines drawn as free bases though some values may be those of a salt) can be followed below.

`COc1cccc(C2(O)c3cccc(O)c3C(=O)c3c(O)cccc32)c1`: the melting point – broadly, the temperature, or range, at which the solid turns liquid – was determined as 187 °C.
Then `O=C(O)CCc1cn(Cc2ccc(OCc3ccsc3)cc2)cc1-c1ccccc1`, with 118 to 119 °C; and `COC(=O)COc1c(C(=O)OC)n(-c2ccccc2)c2ccc(OC)cc12`, with 97 to 100 °C.
Then `CC(=O)Nc1cc2c(Nc3ccc(Sc4nccn4C)c(Cl)c3)c(C#N)cnc2cc1N1CCC(N2CCCC2)CC1`, with 243 to 255 °C; and `CCCN(CCC)C(=O)Cn1c(=O)n(C)c2cnc(-c3ccccc3)nc21`, with 156 to 157 °C.
The compound `CC(O)C(CCCc1ccccc1)n1ncc2c(=O)[nH]c(Cc3ccc(Br)cc3)nc21` (configuration not stated) displayed a melting point of 117 °C.
In the case of `CC(C)Oc1c(C(N)=O)oc2ccc(O)cc12` it was 183 to 185 °C; in that of `COc1ccc(C(=O)Cn2c(-n3ccc(N)n3)nc3ccccc32)cc1`, 136 to 140 °C.
Compound `CC(=O)Nc1cccc(C(C)=O)c1C(=O)O` returned a melting point of 131 °C.
`Cc1nc(N2CCCC2)ccc1N1CCCn2c1nc1c(Cl)ccc(C(OC(F)F)C(F)(F)F)c12` (configuration not stated) returned a melting point of 233 to 236 °C.
In the case of `C=Cc1ccc(-c2ccc3cc(C(=O)OCc4ccccc4)ccc3c2)cc1C12CC3CC(CC(C3)C1)C2` it was 158 to 160 °C; in that of `CC(=O)Oc1ccc2c(c1)CCC1C2CCC2(C)C1CC(O)C2N(C)C` (configuration not stated), 173 to 175 °C.
In turn, `CC(=O)OC1CC2(C)C(C(C)=O)=CCC2C2CCC3=CC(=O)C=CC3(C)C12F` (configuration not stated) registered a melting point of 202 to 203 °C.
Then `O=c1[nH]c(=O)n(Cc2cccc(OCc3noc(-c4ccccc4)n3)c2)o1`, with 133 to 134 °C; and `CC(C)(C)c1cc(C(=O)NCC(=O)O)ccc1OCc1ccccc1`, with 172 to 174 °C; and `C=COC(=O)N1C[C@@H]2SCCC(c3ccccc3)(c3ccccc3)[C@@H]2C1` (racemic), with 160 °C.
On to `COC(=O)c1ccc(CCC(CS(=O)(=O)c2ccc(Oc3ccc(OC(F)(F)F)cc3)cc2)N(O)C=O)cc1` (configuration not stated), for which the melting point lay within 153 to 154 °C.
The compound `CS(=O)(=O)c1ccc(-c2oc(COc3ccccn3)nc2-c2ccc(F)cc2)cc1` gave a melting point of 276 to 278 °C.
In the case of `O=C(Nc1nccs1)c1c([C@@H]2CCCN2)nc2c(C(F)(F)F)cccc2c1O` it was 196 °C; in that of `CS(=O)(=O)CCS(=O)(=O)C1CCCCC1`, 89 to 91 °C; in that of `CN1C2CCC1CC(n1cc(-c3ccc(Oc4ccccc4)cc3)c3c(N)ncnc31)C2` (configuration not stated), 238 to 250 °C.
Regarding `CC(C)C(Cl)C(=O)Nc1c(C(=O)CC(=O)Nc2nccs2)cccc1C(F)(F)F` (configuration not stated), the melting point was found to be 186 °C.
As to `O=C(O)C(O)P(=O)(O)O` (configuration not stated), the melting point lay in the range of 153 to 154 °C.
In turn, `O=C(O)c1ccc(CCn2ccn([C@H]3CCc4c(F)cc(F)cc4C3)c2=S)cc1` had a melting point of 222 to 224 °C.
Turning to `CCOC(=O)C1CCC(c2ccc(Cl)cc2)n2c(=O)n(CCCl)c(=O)n21` (configuration not stated), the melting point is 111 to 112 °C.
Take `O=c1[nH]c2cc(Cl)ccc2n1C1CCN(CCCNc2ccccc2[N+](=O)[O-])CC1`: the melting point amounted to 220 °C.
In the case of `N#Cc1cnn2c1NCC=C2c1cc(Cl)ccc1Cl` it was 222 to 223 °C; in that of `Cc1ccc(C(O)(c2ccc(C)cc2)[C@H](C)OS(C)(=O)=O)cc1`, 83 to 85 °C.
In the case of `O=Cc1cccc(NC(=O)c2ccccc2)c1` it was 122 to 123 °C.
In the case of `CCCCC(=O)c1c(CN2CCOCC2)nc2cc(OC)c(OC)cc2c1-c1ccc(OC)c(OC)c1` it was 137 to 138 °C.
In turn, `COc1ncccc1-c1ncc(OC2SCC(O)C(O)C2O)cc1F` (configuration not stated) showed a melting point of 141 °C.
In the case of `COC(=O)CCCc1ccc(OCCN(C)c2nc3ccccc3o2)cc1` it was 117 to 119 °C; in that of `CCc1ccc(C2(OC(C)=O)C(=O)c3ccccc3C2=O)c(OC(C)=O)c1`, 136 to 137 °C.
For the compound `Cc1ccc(Sc2ccc(C)cc2)cc1`, the melting point turned out to be 56.5 °C.
In turn, `CSc1ccc(CSc2nnc(-c3ccc4ncsc4c3)o2)cc1C(F)(F)F` came in with a melting point of 122 to 123 °C.
For `CC(C)(O)C1CCN(c2ccc(C#N)c3ccccc23)CC1`, the melting point lay within 133 to 134 °C.
Then `CN1CC(C#N)C(=O)c2cc3cc(F)c(F)cc3nc21` (configuration not stated), with 144 °C; and `COCCn1nnnc1-c1cc(-c2cc(C(F)(F)F)ccc2F)c(O)cc1O`, with 90 to 94 °C; and `c1ccc(CC(=Nn2cncn2)c2ccccc2)cc1`, with 78 to 80 °C.
As to `COc1ccc(-c2nc(C(=O)O)cn2-c2ccc(OC)cc2)cc1`, the melting point was 102 to 105 °C.
Then `CCc1ccc(S(=O)(=O)Nc2cccnc2Nc2ccccc2)cc1`, with 138 to 139 °C.
`C[C@@H]1CCCN1CCCN1CCN(CCN2CCCCC2)C1=C(C#N)C#N` had a melting point of 70 to 71 °C.
Take `CCOC(=O)NCC(=O)c1ccc(OCC(=O)NCCN2CCOCC2)cc1`: the melting point lay within 133 to 135 °C.
In the case of `CCOC(=O)c1cnn(-c2ncc(Cl)cc2Cl)c1N` it was 98 to 101 °C.
Then `CS(=O)(=O)N[C@@H]1CCCC[C@H]1Nc1nc(Nc2ccc3c(c2)CCC(=O)CC3)ncc1Cl`, with 146 to 153 °C; and `C=C(C)c1ccc(OCCO)cc1`, with 78 to 80 °C.
Compound `Cc1c(C2CCC(c3cccs3)(N(C)C)CC2)[nH]c2ccccc12` (configuration not stated) registered a melting point of 191 to 197 °C.
In turn, `COC(=O)C1CC(C#N)(c2ccccc2Cl)CCC1=O` (configuration not stated) returned a melting point of 113 to 118 °C.
In the case of `CCOC(=O)C1=C[C@@H](OC(CC)CC)[C@H](NC(C)=O)[C@H](O)C1` it was 129 to 131 °C; in that of `CCOC(Cc1ccc(OCCn2ccc3ccc(C(=O)C4CC4)nc32)cc1)C(=O)OC` (configuration not stated), 159 °C.
In the case of `C#Cc1c(-c2ccc(F)cc2)cc(C(c2ccccc2)c2ccccc2)nc1C(C)C` it was 106 to 108 °C.
Then `O=C(Nc1ccccc1Cl)Oc1ccc2c(c1)N(Cc1ccccc1)CCC2`, with 145 °C.
`Cc1nccc(N2CCN(C(=O)C3CCN(S(=O)(=O)c4ccc(Br)cc4)CC3)CC2)n1`: the melting point was 239 to 240 °C.
In turn, `O=C1N(CCOCc2ccccc2)CCN1c1ccc(C(F)(F)F)cc1` had a melting point of 66 to 68 °C.
In the case of `CCOC(=O)C1=C(C)NC(C)=C(C(=O)OCC)C1c1cccc(F)c1F` it was 161 to 162 °C; in that of `COc1ccc(-c2cnc3cc4cnn(CCOC(C)=O)c4cc3n2)cc1F`, 164 to 166 °C; in that of `Cc1ccc2c(c1)nnn2C1(c2ccccc2)OC(=O)c2cccc([N+](=O)[O-])c21` (configuration not stated), 240 to 248 °C.
In turn, `CCOC(=O)C1=C(C)NC(SCc2ccc(OC)cc2)=NC1c1cccc([N+](=O)[O-])c1` (configuration not stated) displayed a melting point of 95 to 97 °C.
Then `N#Cc1ccc(NC(=O)CCCC(=O)O)cc1`, with 200 to 201 °C; and `CSc1nc2c(NCc3ccccc3)nc(NCCCO)nc2n1C(C)C`, with 64 to 67 °C; and `CCOCc1nc2c(N)nc3cccnc3c2n1CCCCN(OC)C(=O)NC(C)C`, with 146 to 147 °C.
Then `O=C(NC(c1ccccc1)c1ccccc1)NS(=O)(=O)Cl`, with 80 to 88 °C.
